Data from ChEMBL document CHEMBL1155390, “Isolation and biological evaluation of 8-epi-malyngamide C from the Floridian marine cyanobacterium Lyngbya majuscula” (J Nat Prod, 2010).
Calls of active or inactive are those of the source. The calls are words filed in the database; no cut-off is given here.

What was measured:
Escherichia coli [1] = assay: Inhibition of quorum sensing in Escherichia coli JM109 harboring pSB1075 assessed as suppression of LasR-mediated 3-oxo-C12-HSL signaling at 10 to 1000 uM after 6.5 hrs by reporter gene assay
HT-29 = assay: Cytotoxicity against human HT-29 cells after 48 hrs MTT assay; format: functional, cell-based; conditions: HT-29, 48 h
Escherichia coli [2] = assay: Antibacterial activity against Escherichia coli JM109 harboring pSB1075 assessed as cell density at 10 to 1000 uM after 6.5 hrs

Structure (SMILES)	Activity (Escherichia coli [1])	IC50 (HT-29) [µM]	Activity (Escherichia coli [2])
CCCCCCC[C@@H](C/C=C/CCC(=O)NC/C(=C/Cl)[C@]12O[C@H]1[C@@H](O)CCC2=O)OC [MALYNGAMIDE C]	Active	5.2	inactive
CCCCCCC[C@@H](C/C=C/CCC(=O)NC/C(=C/Cl)[C@]12O[C@H]1[C@H](O)CCC2=O)OC	Active	15.4	inactive
